From article PMC5556071, “ATR inhibition facilitates targeting of leukemia dependence on convergent nucleotide biosynthetic pathways” (Nature Communications, 2017)
Several values for one entry are separate records, joined by “and”; a condition that tells them apart may be missing. Identical values can stand only once.

Tested on: CEM cells
Test: Non-targeted LC-MS metabolite profiling: percent [13C6]glucose labeling and relative metabolite levels
Format: cell-based, human
Settings: CEM cells, 12 h following release from G1 arrest, replicates #1-#6
Excerpt: To further investigate the functions of dCK and ATR at the G1/S transition in CEM cells, a non-targeted liquid chromatography mass spectrometry (LC-MS) assay was used to determine the utilization of labeled [^13C6]glucose and [^13C9,^15N3]deoxycytidine, the main substrates for de novo and salvage nucleotide biosynthesis, respectively. Of the 166 metabolites identified in CEM cells treated with VE-822 and/or dCKi, 105 metabolites found in all four treatment groups contained glucose-derived ^13C atoms. […] These metabolites included intermediates such as rUTP, rCTP and rCDP in the de novo dCTP biosynthesis (Fig. 1d). […] However, several deoxyribonucleotides, including dCTP, were below the limit of detection of the non-targeted LC-MS approach, raising the concern that the sensitivity of this assay is not sufficient to measure the contribution of the salvage pathway or the ratio of de novo and salvage biosynthesis to these pools. To address this problem, a newly developed targeted MS assay was developed (Fig. 1e and Supplementary Fig. 3). In this assay, samples containing either extracted dNTPs or hydrolyzed DNA from labeled cells are separated by LC for detection by a triple quadrupole mass spectrometer using multiple reaction monitoring (LC-MS/MS-MRM). The first (Q1) and third (Q3) quadrupoles function as mass filters, while the second (Q2) quadrupole serves as a collision chamber (Fig. 1e). For instance, to profile the biosynthetic composition of deoxycytidine (dC) derived from hydrolyzed DNA or dCTP, an intact, protonated dC ion is selected in Q1, followed by fragmentation of the glycosidic bond, which releases protonated cytosine in Q2, that is filtered in Q3 and detected to generate an ion chromatogram. The peak areas for the ion chromatograms of salvage [^13C9,^15N3]dC (red trace), de novo [^13C5]dC (black trace, from [^13C6]glucose) and unlabeled dC (gray trace) (Fig. 1e) are used to determine the relative contributions of the de novo and salvage routes both to dCTP pools and to DNA-incorporated dCTP.
Cells were transferred into RPMI-1640 without glucose and supplemented with 10% dialyzed FBS (Gibco) containing the following labeled substrates: precursors for de novo [U-^13C6]glucose (Sigma-Aldrich, 389374) at 11 mM; precursors for purine salvage [U-^13C10,^15N5]dA (Cambridge Isotopes, CIL 3896), [^15N5]dA (Cambridge Isotopes, NLM-3895) and [^15N5]dG (Cambridge Isotopes, NLM-3899) at 5 µM or as indicated; and precursors for pyrimidine salvage: [U-^13C9,^15N3]dC (Silantes, 124603602) and [U-^13C10,^15N2]dT (Cambridge Isotopes, CNLM-3902) at 5 µM and [^15N2]orotate (Cambridge Isotopes, NLM-1048) at indicated concentrations. The cells were incubated for 12 h or as indicated before sample collection and processing. […]
Non-targeted LC-MS metabolic assays. 1 x 10^6 cells were washed with ice-cold 150 mM ammonium acetate twice before adding 1 mL of ice-cold 80% methanol with 10 nM norvaline as an internal standard. After vigorous vortexing, samples were centrifuged at maximum speed, the aqueous layer was transferred to a glass vial and the metabolites were dried under vacuum. Metabolites were resuspended in 50 μL 70% acetonitrile (ACN) and 5 μL of this solution used for the mass spectrometer-based analysis. The analysis was performed on a Q Exactive (Thermo Scientific) in polarity-switching mode with positive voltage 4.0 kV and negative voltage 4.0 kV. The mass spectrometer was coupled to an UltiMate 3000RSLC (Thermo Scientific) UHPLC system. Mobile phase A was 5 mM ammonium acetate (NH4AcO), pH 9.9, B was acetonitrile and the separation achieved on a Luna […] NH2 100 A column (150 × 2.0 mm, Phenomenex). The flow was 200 μL/min, and the gradient ran from 15% A to 95% A in 18 min, followed by an isocratic step for 9 min and re-equilibration for 7 min. Metabolites were detected and quantified as area under the curve based on retention time and accurate mass (≤ 3 p.p.m.) using the TraceFinder 3.1 (Thermo Scientific). Relative amounts of […]

[1] = metabolite 2-HG (C02630), listed as D
[2] = metabolite 2-Oxoadipate (C00322), listed as D
[3] = metabolite 3PG (C00197), listed as D
[4] = metabolite 4-OH-PheLac (C03672), listed as D
[5] = metabolite 5-Oxoproline (C01879), listed as D
[6] = metabolite 5M-adenosine (C00170), listed as D
[7] = metabolite A (C00212), listed as D
[8] = metabolite ADP (C00008), listed as D
[9] = metabolite AMP (C00020), listed as D
[10] = metabolite ATP (C00002), listed as D
[11] = metabolite Ac-carnitine (C02571), listed as D
[12] = metabolite Ac-choline (C01996), listed as D
[13] = metabolite Aconitate (C00417), listed as D
[14] = metabolite Adenine (C00034), listed as D
[15] = metabolite Ala (C00041), listed as D
[16] = metabolite Allantoin (C02350), listed as D
[17] = metabolite Arg (C00062), listed as D

For `COc1ccc(-c2nc([C@@H](C)Sc3nc(N)cc(N)n3)c(C)s2)cc1OCCNS(C)(=O)=O` [dCKi], the “Relative level, S7P” value (listed as D) was 0.547 and 0.8 and 1.8 and 0.0379 and 0.143 and 0.5, the “Relative level, SAM” value (listed as D) was 1.1 and 1.4 (2×) and 0.8 and 0.6 and 0.7 and the “Relative level, Sarc (C00213)” value (listed as D) was 1.2 and 1.0 (2×) and 1.6 and 0.662 and 0.641. For the same compound, the “Relative level, Ser (C00065)” value (listed as D) was 1.1 and 1.2 and 1.3 and 0.846 and 0.7 and 0.9, the “Relative level, Shikimate (C00493)” value (listed as D) was 1.3 and 0.7 and 1.0 and 0.649 and 0.9 (2×) and the “Relative level, Succ (C00042)” value (listed as D) was 1.5 and 0.6 (2×) and 1.3 and 0.374 and 0.633. For the same compound, the “Relative level, T (C00214)” value (listed as D) was 1.2 and 1.1 and 1.0 and 1.4 and 151.2 and 4.3, the “Relative level, Thr (C00188)” value (listed as D) was 1.1 and 1.2 and 1.3 and 0.8 and 0.7 and 0.738 and the “Relative level, Thymine (C00178)” value (listed as D) was 1.0 and 1.2 and 1.3 and 0.9 and 0.95 and 1.1. The “Relative level, Trigonelline (C01004)” value (listed as D) was 1.2 (2×) and 0.847 and 1.1 and 1.5 and 1.0, the “Relative level, Trp (C00078)” value (listed as D) was 1.1 and 1.4 and 1.7 and 0.9 (2×) and 1.0 and the “Relative level, Tyr (C00082)” value (listed as D) was 1.2 and 1.4 and 1.6 and 0.9 and 0.7 and 0.8. For the same compound, the “Relative level, Tyramine (C00483)” value (listed as D) was 1.2 (2×) and 1.1 and 0.8 (2×) and 0.7, the “Relative level, UDP (C00015)” value (listed as D) was 0.742 and 1.3 and 2.0 and 0.235 and 0.464 and 0.9 and the “Relative level, UDP-Glc (C00029)” value (listed as D) was 0.8 and 1.2 and 1.1 and 0.3 and 0.6 (2×). The “Relative level, UDP-GlcNAc (C00043)” value (listed as D) was 1.0 and 1.4 and 1.2 and 0.5 and 0.744 and 0.8, the “Relative level, UMP (C00105)” value (listed as D) was 1.3 and 1.6 and 1.9 and 0.4 and 0.552 and 0.7 and the “Relative level, UTP (C00075)” value (listed as D) was 0.4 and 0.9 and 1.4 and 0.092 and 0.334 and 0.547. The “Relative level, Uracil (C00106)” value (listed as D) was 1.2 (2×) and 0.9 and 1.0 and 1.3 and 1.9, the “Relative level, Uric Acid (C00366)” value (listed as D) was 1.5 and 0.155 and 0.646 and 0.6 and 0.362 and 0.421 and the “Relative level, Urocanate (C00785)” value (listed as D) was 2.0 and 0.4 and 0.448 and 1.2 (2×) and 1.0. For the same compound, the “Relative level, Val (C00183)” value (listed as D) was 1.1 and 1.2 (2×) and 0.9 (2×) and 1.0, the “Relative level, Vit-C (C00072)” value (listed as D) was 0.9 and 0.181 and 1.3 and 0.0595 and 0.3 and 0.557 and the “Relative level, Xanthine (C00385)” value (listed as D) was 1.7 and 0.5 and 0.6 and 1.1 and 1.5 and 1.2. The “Glucose labeling, 2-HG” value [1] was 6.77% and 13.59% and 15.44% and 1.27% and 1.71% and 4.69%, the “Relative level, 2-HG” value [1] was 1.0 and 0.9 and 1.5 and 0.5 (2×) and 0.7 and the “Glucose labeling, 2-HIC” value (metabolite 2-HIC (C03264)) was 0.00%. For the same compound, the “Relative level, 2-HIC” value (metabolite 2-HIC (C03264), listed as D) was 1.2 and 1.1 and 1.4 and 0.9 and 1.3 and 0.8, the “Glucose labeling, 2-KIC” value (metabolite 2-KIC (C00233)) was 0.00% and the “Relative level, 2-KIC” value (metabolite 2-KIC (C00233), listed as D) was 1.2 and 0.9 (3×) and 1.1 and 0.8. For the same compound, the “Glucose labeling, 2-Oxoadipate” value [2] was 0.00% (5×) and 1.11e-14%, the “Relative level, 2-Oxoadipate” value [2] was 0.7 (2×) and 0.646 and 0.742 and 1.0 and 0.9 and the “Glucose labeling, 2-Oxosuccinamate” value (metabolite 2-Oxosuccinamate (C02362)) was 0.0737%. The “Relative level, 2-Oxosuccinamate” value (metabolite 2-Oxosuccinamate (C02362), listed as D) was 1.2 and 0.465 and 0.6 and 0.528 and 0.8 and 0.469, the “Glucose labeling, 3PG” value [3] was 92.31% and 91.58% and 98.25% and 86.75% and 100.00% and 88.16% and the “Relative level, 3PG” value [3] was 0.4 and 0.7 and 0.846 and 0.082 and 0.125 and 0.0782. For the same compound, the “Glucose labeling, 4-OH-PheLac” value [4] was 0.00% (5×) and -2.22e-14%, the “Relative level, 4-OH-PheLac” value [4] was 1.1 and 1.4 and 1.5 and 0.641 and 0.6 and 0.8 and the “Glucose labeling, 5-Oxoproline” value [5] was 0.92% and 1.40% and 1.07% and 1.03% and 1.24% and 1.22%. For the same compound, the “Relative level, 5-Oxoproline” value [5] was 1.1 and 1.2 and 1.5 and 0.853 and 0.9 and 1.0, the “Glucose labeling, 5M-adenosine” value [6] was 0.00% (3×) and -2.22e-14% (3×) and the “Relative level, 5M-adenosine” value [6] was 1.2 and 1.7 and 1.8 and 0.756 and 0.7 and 1.0. For the same compound, the “Glucose labeling, A” value [7] was 0.07% and 0.09% and 0.36% and 0.41% (2×) and 0.34%, the “Relative level, A” value [7] was 1.5 and 0.9 (2×) and 1.1 and 0.856 and 0.8 and the “Glucose labeling, ADP” value [8] was 70.99% and 74.74% and 75.09% and 55.71% and 66.84% and 71.23%. The “Relative level, ADP” value [8] was 0.7 and 1.2 and 1.9 and 0.226 and 0.4 and 0.8, the “Glucose labeling, AMP” value [9] was 68.04% and 70.86% and 73.23% and 43.50% and 56.58% and 70.44% and the “Relative level, AMP” value [9] was 1.2 (2×) and 1.8 and 0.25 and 0.471 and 0.9. For the same compound, the “Glucose labeling, ATP” value [10] was 75.87% and 76.55% and 77.60% and 67.61% and 74.40% and 75.12%, the “Relative level, ATP” value [10] was 0.38 and 0.9 and 1.3 and 0.117 and 0.3 and 0.6 and the “Glucose labeling, Ac-carnitine” value [11] was 31.00% and 33.96% and 35.62% and 27.44% and 29.81% and 28.83%. The “Relative level, Ac-carnitine” value [11] was 1.1 and 1.3 and 1.2 and 0.7 and 0.756 and 0.8, the “Glucose labeling, Ac-choline” value [12] was 0.00451% and 0.00494% and 0.00571% and 0.0058% and 0.0047% and 0.00638% and the “Relative level, Ac-choline” value [12] was 0.9 and 1.1 and 1.0 (4×). For the same compound, the “Glucose labeling, Aconitate” value [13] was 32.66% and 37.44% and 42.11% and 17.39% and 31.02% and 28.93%, the “Relative level, Aconitate” value [13] was 0.7 and 1.2 and 1.6 and 0.2 and 0.5 and 0.639 and the “Glucose labeling, Adenine” value [14] was 0.0339% and 2.19% and 0.79% and 0.14% and 0.00469% and 0.21%. The “Relative level, Adenine” value [14] was 1.9 and 0.7 and 1.3 (2×) and 3.1 and 1.0, the “Glucose labeling, Ala” value [15] was 47.12% and 64.98% and 65.33% and 49.43% and 49.22% and 48.91% and the “Relative level, Ala” value [15] was 1.5 and 1.2 and 1.3 and 0.8 (3×). The “Glucose labeling, Allantoin” value [16] was 0.00% (5×) and 1.11e-14%, the “Relative level, Allantoin” value [16] was 1.1 and 1.9 and 2.0 and 0.8 and 1.3 and 1.5 and the “Glucose labeling, Arg” value [17] was 0.0044% and 0.00434% and 0.00388% and 0.00418% and 0.00453% and 0.00424%. The “Relative level, Arg” value [17] was 1.0 and 1.3 and 1.5 and 0.749 and 0.7 (2×) and the “Glucose labeling, Arg-Succ” value (metabolite Arg-Succ (C03406), listed as D) was 7.24% and 12.66% and 11.40% and 7.14% and 3.06% and 7.90%.
